Reference: patent US6965039B2, “7-carboxy-flavone derivatives preparation method and therapeutic use” (Negma-Lerads, priority 2000, dated 2005)

Assays:
[1] = tested on: TNFα (tumor necrosis factor); test: Inhibition of TNFα secretion on PBMC cells (method of Schindler); type: cell-based; details: tests in duplicate, read-out: TNFα, percentage of inhibition
Protocol: (§1) The inhibiting activity on the secretion of inflammatory cytokines of the compounds of the invention was tested in vitro, more particularly on the secretion of IL-1 (interleukin 1) and on IL-6 and TNFα (tumor necrosis factor), which are the main cytokines related to the arthrotic process.
(§2) The tests on these three cytokines were carried out on PBMC (Peripheral Blood Mononuclear Cells) cells according to the method of Schindler (R. Schindler et al., Blood, (1990) 75, 40-47) using cycloheximide (IL-1) and dexamethasone (IL-6, TNFα) as reference products.
(§3) The results of the tests carried out with the flavone derivatives of the invention described in examples 1, 4 and 6 above [sic] are combined in the following table. The tests were carried out in duplicate, at concentrations of 1 and 10 μM. The results are expressed as percentage of inhibition.

IL-6 = test: Inhibition of IL-6 secretion on PBMC cells (method of Schindler); type: cell-based; details: tests in duplicate
Protocol: as §1, §2, §3

IL-1 (interleukin 1) = test: Inhibition of IL-1 secretion on PBMC cells (method of Schindler); type: cell-based; details: tests in duplicate
Protocol: as §1, §2, §3

prostaglandins (PGE2) = test: Secretion of prostaglandins (PGE2) on differentiated HL-60 cells (method of Honda); type: cell-based
Protocol: The effect of the derivatives of the invention on the secretion of prostaglandins (PGE2), which increase articular inflammation, and of leukotriene (LTB4) was measured on differentiated HL-60 cells using the methods of Honda (M. Honda et al., Diabetes Res., (1990) 14, 43-46) and of Bennett (C. F. Bennett et al., Biochem. J., (1993) 289, 33-39), respectively, using indomethacin and nordihydroguaiaretic acid as reference products.

[2] = read-out: IL6, percentage of inhibition
[3] = read-out: IL1β, percentage of inhibition

**Q.** Which inhibition at 1 µM ([1]; 1 μM) does the source give for `O=C(O)c1cc(O)c2c(=O)cc(-c3ccccc3)oc2c1` [Example 1, 5-Hydroxy-2-phenyl-4-oxo-4H-chromene-7-carboxylic acid] here?
**A.** 61%

**Q.** And the inhibition at 10 µM ([1]; 10 μM)?
**A.** 32%

**Q.** What about the inhibition at 1 µM (IL-6; 1 μM, read-out: IL6, percentage of inhibition) of the same molecule?
**A.** 50%

**Q.** What about the inhibition at 10 µM (IL-6; [2]) of the same molecule?
**A.** 98%

**Q.** And the inhibition at 1 µM (IL-1 (interleukin 1); 1 μM, read-out: IL1β, percentage of inhibition)?
**A.** 15%

**Q.** And the inhibition at 10 µM (IL-1 (interleukin 1); [3])?
**A.** 96%

**Q.** What about the melting point of the same molecule?
**A.** 270 °C (dec.)

**Q.** What does the source list for `COc1ccc(-c2cc(=O)c3c(O)cc(C(=O)O)cc3o2)cc1` [Example 4, 5-Hydroxy-0.2-(4′-methoxyphenyl)-4-oxo-4H-chromene-7-carboxylic acid]?
**A.** IL6, percentage of inhibition (IL-6; 1 μM): 56%; IL1β, percentage of inhibition (IL-1 (interleukin 1); 1 μM): <10%; effect on the secretion of prostaglandins (prostaglandins (PGE2)): stimulating the secretion of prostaglandins

**Q.** What does the source list for `O=C(O)c1cc(O)c2c(=O)cc(-c3ccc(C(F)(F)F)cc3)oc2c1` [Example 6, 5-Hydroxy-2-(4′-trifluoromethylphenyl)-4-oxo-4H-chromene-7-carboxylic acid]?
**A.** inhibition at 10 µM (IL-6; [2]): 100%; inhibition at 10 µM (IL-1 (interleukin 1); [3]): 72%
